Experimental data: US20250011318A1 (ARCUS BIOSCIENCES, INC., priority 2023, published 2025)

Tests used:
Cbl-b = target: T1, Cbl-b (Homo sapiens, UniProt Q13191); test: Cbl-b probe displacement HTRF binding assay; details: 0.4 nM biotinylated Cbl-b, 150 nM BODIPY probe
T1 construct: biotin (biotinylated)
In short: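 Probe-displacement HTRF in Hepes/NaCl/Triton/TCEP/BSA buffer at room temperature: compound dilutions (to 10 μM) incubated 60 min with 0.4 nM biotin-Cbl-b, 150 nM BODIPY probe added for 15 min, Tb-streptavidin read. Signal normalised to DMSO and no-protein controls; IC50 from four-parameter curve.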

Jurkat cells = test: IL-2 secretion assay in CD3/CD28-activated Jurkat cells (AlphaLISA); format: cell-based, human; details: Homo sapiens, CD3/CD28 T Cell Activator, 24 h, IL-2 AlphaLISA
In short: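 IL-2 release quantified by AlphaLISA in supernatants after 24 h CD3/CD28 activation at 37° C. Compounds, 10 μM to 300 pM final in 1:2 steps, were added to 50,000 Jurkat cells/well 1 h before activation; 4-parameter fit gave EC50.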

T1 sequence (Q13191 whole entry, species assumed): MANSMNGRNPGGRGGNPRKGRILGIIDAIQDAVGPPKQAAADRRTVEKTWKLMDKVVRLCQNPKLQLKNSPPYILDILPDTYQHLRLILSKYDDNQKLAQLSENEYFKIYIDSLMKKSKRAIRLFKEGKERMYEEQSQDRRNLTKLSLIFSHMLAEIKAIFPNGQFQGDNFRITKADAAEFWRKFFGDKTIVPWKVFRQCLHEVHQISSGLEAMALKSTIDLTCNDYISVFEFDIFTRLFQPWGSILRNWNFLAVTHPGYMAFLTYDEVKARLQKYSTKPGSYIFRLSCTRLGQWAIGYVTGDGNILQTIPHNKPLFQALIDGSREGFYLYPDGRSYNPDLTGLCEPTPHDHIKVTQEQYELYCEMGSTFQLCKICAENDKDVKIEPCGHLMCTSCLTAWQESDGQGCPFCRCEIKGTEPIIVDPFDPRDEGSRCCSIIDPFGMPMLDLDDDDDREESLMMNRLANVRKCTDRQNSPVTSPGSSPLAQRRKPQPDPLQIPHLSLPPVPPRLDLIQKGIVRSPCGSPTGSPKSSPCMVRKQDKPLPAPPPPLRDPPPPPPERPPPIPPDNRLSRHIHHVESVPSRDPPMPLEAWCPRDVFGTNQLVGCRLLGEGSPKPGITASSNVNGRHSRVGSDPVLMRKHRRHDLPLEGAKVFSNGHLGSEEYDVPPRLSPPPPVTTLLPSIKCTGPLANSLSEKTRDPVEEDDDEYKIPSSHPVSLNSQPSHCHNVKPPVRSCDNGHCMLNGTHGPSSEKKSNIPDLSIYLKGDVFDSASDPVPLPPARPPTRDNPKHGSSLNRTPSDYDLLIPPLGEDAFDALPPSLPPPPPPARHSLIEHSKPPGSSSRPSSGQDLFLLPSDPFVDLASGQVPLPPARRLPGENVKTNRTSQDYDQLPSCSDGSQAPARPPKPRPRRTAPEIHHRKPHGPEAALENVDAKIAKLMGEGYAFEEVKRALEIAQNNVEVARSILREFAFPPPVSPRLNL

Compound | IC50 (Cbl-b) [nM] | EC50 (Jurkat cells) [nM]
Cn1cnnc1-c1cc(F)ccc1-c1cc(C2CC2)nc(-n2cnc3cc(CC4COC4)[nH]c3c2=O)c1 [Example 123, 3-[6-cyclopropyl-4-[4-fluoro-2-(4-methyl-1,2,4-triazol-3-yl)phenyl]pyridin-2-yl]-6-(oxetan-3-ylmethyl)-5H-pyrrolo[3,2-d]pyrimidin-4-one] | < 100 | 100 to 1000
Cn1cnnc1-c1cc(F)ccc1-c1cc(C2CC2)nc(-n2cc(C#N)c3cc(C(O)C4CCCC4)[nH]c3c2=O)c1 (stereo not shown) [Example 91, 2-(cyclopentylhydroxymethyl)-6-{6-cyclopropyl-4-[4-fluoro-2-(4-methyl-4H-1,2,4-triazol-3-yl)phenyl]-2-pyridyl}-7-oxo-1,6-dihydro-1,6-diaza-4-indenecarbonitrile] | < 100 | < 100
Cn1cnnc1-c1cc(F)ccc1-c1cc(C2CC2)nc(-n2cc(C#N)c3cc(C(N)c4cccnc4)[nH]c3c2=O)c1 (stereo not shown) [Example 94, 2-[Amino(3-pyridyl)methyl]-6-{6-cyclopropyl-4-[4-fluoro-2-(4-methyl-4H-1,2,4-triazol-3-yl)phenyl]-2-pyridyl}-7-oxo-1,6-dihydro-1,6-diaza-4-indenecarbonitrile] | < 100 | 100 to 1000
COc1ccc(-c2cc(C3CC3)nc(-n3cc(C4CC4)c4cc(CN5CCC[C@H](C)C5)[nH]c4c3=O)c2)c(-c2nncn2C)c1 [Example 5, 2-{[(S)-3-Methyl-1-piperidyl]methyl}-4-cyclopropyl-6-{6-cyclopropyl-4-[4-methoxy-2-(4-methyl-4H-1,2,4-triazol-3-yl)phenyl]-2-pyridyl}-1,6-dihydro-1,6-diaza-7-indenone] | < 100 | < 100
O=c1c2[nH]c(CN[C@H]3CCC[C@H]3O)cc2c(C2CC2)cn1-c1cc(F)cc(-c2ccc(F)cc2-c2nncn2C(F)F)c1 [Example 70, 2-{[(1S,2R)-2-hydroxycyclopentylamino]methyl}-4-cyclopropyl-6-{2′-[4-(difluoromethyl)-4H-1,2,4-triazol-3-yl]-4′,5-difluoro-3-biphenylyl}-1,6-dihydro-1,6-diaza-7-indenone] | < 100 | < 100
C[C@H]1CCCN(Cc2cc3c(C4CC4)cn(-c4cc(-c5ccc(F)cc5-c5nccn5C)cc(C5CC5)n4)c(=O)c3[nH]2)C1 [Example 52, 2-{[(S)-3-methyl-1-piperidyl]methyl}-4-cyclopropyl-6-{6-cyclopropyl-4-[4-fluoro-2-(1-methyl-2-imidazolyl)phenyl]-2-pyridyl}-1,6-dihydro-1,6-diaza-7-indenone] | < 100 | < 100
C[C@@H]1CN(Cc2cc3c(C4CC4)cn(-c4cc(-c5ccc(F)cc5-c5nccn5C)cc(C5CC5)n4)c(=O)c3[nH]2)CCO1 [Example 54, 2-{[(R)-2-methyl-4-morpholinyl]methyl}-4-cyclopropyl-6-{6-cyclopropyl-4-[4-fluoro-2-(1-methyl-2-imidazolyl)phenyl]-2-pyridyl}-1,6-dihydro-1,6-diaza-7-indenone] | < 100 | < 100
Cn1cnnc1-c1cc(F)ccc1-c1cc(C2CC2)nc(-n2cc(C(F)(F)F)c3c(C#N)n[nH]c3c2=O)c1 [Example 26, 6-{6-cyclopropyl-4-[4-fluoro-2-(4-methyl-4H-1,2,4-triazol-3-yl)phenyl]-2-pyridyl}-7-oxo-4-(trifluoromethyl)-1,6-dihydro-1,2,6-triaza-3-indenecarbonitrile] | < 100 | 1000 to 5000
Cn1cnnc1-c1cc(F)ccc1-c1cc(C2CC2)nc(-n2cnc3cc(C(F)C4CCCC4)[nH]c3c2=O)c1 (stereo not shown) [Example 127, 6-[cyclopentyl(fluoro)methyl]-3-[6-cyclopropyl-4-[4-fluoro-2-(4-methyl-1,2,4-triazol-3-yl)phenyl]pyridin-2-yl]-5H-pyrrolo[3,2-d]pyrimidin-4-one] | < 100 | < 100
COCCNCc1cc2ncn(-c3cc(-c4ccc(C#N)cc4-c4nc(C#N)cn4C)cc(C4CC4)n3)c(=O)c2[nH]1 [Example 116, 2-[5-cyano-2-[2-cyclopropyl-6-[6-[(2-methoxyethylamino)methyl]-4-oxo-5H-pyrrolo[3,2-d]pyrimidin-3-yl]pyridin-4-yl]phenyl]-1-methylimidazole-4-carbonitrilef] | < 100 | < 100
Cc1ccnnc1-c1cc(C#N)ccc1-c1cc(C2CC2)nc(-n2cc(C3CC3)c3cc(CNC4(CO)CCC4)[nH]c3c2=O)c1 [Example 76, 4-[2-Cyclopropyl-6-[4-cyclopropyl-2-[[[1-(hydroxymethyl)cyclobutyl]-amino]methyl]-7-oxo-1H-pyrrolo[2,3-c]pyridin-6-yl]pyridin-4-yl]-3-(4-methylpyridazin-3-yl)benzonitrile] | < 100 | < 100
Cn1ccnc1-c1cc(F)ccc1-c1cc(C2CC2)nc(-n2cc(C#N)c3cc(CN4CC5(C4)CS(=O)(=O)C5)[nH]c3c2=O)c1 [Example 87, 6-{6-cyclopropyl-4-[4-fluoro-2-(1-methyl-2-imidazolyl)phenyl]-2-pyridyl}-2-{(2,2-dioxo-2λ^6-thia-6-aza-6-spiro[3.3]heptyl)methyl}-7-oxo-1,6-dihydro-1,6-diaza-4-indenecarbonitrile] | < 100 | < 100
COCCNCc1cc2ncn(-c3cc(-c4ccc(F)cc4-n4nccc4C(F)(F)F)cc(C4CC4)n3)c(=O)c2[nH]1 [Example 104, 3-[6-cyclopropyl-4-[4-fluoro-2-[5-(trifluoromethyl)pyrazol-1-yl]phenyl]pyridin-2-yl]-6-[(2-methoxyethylamino)methyl]-5H-pyrrolo[3,2-d]pyrimidin-4-one] | < 100 | 100 to 1000
C[C@H]1CN(Cc2cc3c(C#N)cn(-c4cc(-c5c(F)cc(F)cc5-c5nccn5C)cc(C5CC5)n4)c(=O)c3[nH]2)CCCO1 [Example 88, 2-{1[(S)-2-methyl-1,4-oxazepan-4-yl]methyl}-6-{6-cyclopropyl-4-[4,6-difluoro-2-(1-methyl-2-imidazolyl)phenyl]-2-pyridyl}-7-oxo-1,6-dihydro-1,6-diaza-4-indenecarbonitrile] | < 100 | < 100
Cc1c[nH]nc1-c1cc(C#N)ccc1-c1cc(C2CC2)nc(-n2cnc3cc(CN4CCC[C@H](C)C4)[nH]c3c2=O)c1 [Example 22, 4-[2-cyclopropyl-6-[6-[[(3S)-3-methylpiperidin-1-yl]methyl]-4-oxo-5H-pyrrolo[3,2-d]pyrimidin-3-yl]pyridin-4-yl]-3-(4-methyl-1H-pyrazol-3-yl)benzonitrile] | < 100 | < 100
Cn1cnnc1-c1cc(F)ccc1-c1cc(C2CC2)nc(-n2cnc3cc(C4CCOC4)[nH]c3c2=O)c1 (stereo not shown) [Example 125, 3-[6-cyclopropyl-4-[4-fluoro-2-(4-methyl-1,2,4-triazol-3-yl)phenyl]-pyridin-2-yl]-6-(oxolan-3-yl)-5H-pyrrolo[3,2-d]pyrimidin-4-one] | < 100 | 100 to 1000
COC1CN(Cc2cc3ncn(-c4cc(-c5ccc(F)cc5-c5nc(C#N)cn5C)cc(C5CC5)n4)c(=O)c3[nH]2)C1 [Example 109, 2-[2-(6-cyclopropyl-2-{2-[(3-methoxy-1-azetidinyl)methyl]-7-oxo-1,6-dihydro-1,4,6-triaza-6-indenyl}-4-pyridyl)-5-fluorophenyl]-1-methyl-4-imidazolecarbonitrile] | < 100 | 100 to 1000
